Laboratory results as given in patent US20090131484A1, “PREVENTIVE OR REMEDY FOR BOWEL DISEASE” (ASTELLAS PHARMA INC, priority 2005, published 2009).

Assays:
[1] = test system: cholera toxin-induced intestinal hypersecretion; settings: mouse, in vivo; for effect on cholera toxin-induced intestinal hypersecretion: iv, 1 mg/kg
[2] = test system: T84 cells; test: Chloride-dependent short circuit current (Isc) in human intestinal epithelial cells, Ussing system; type: cell-based; settings: for effect on forskolin-induced Isc increase: forskolin 10 μM; for effect on thapsigargin-induced continuous Isc increase / effect on transient Isc increase seen before the sustained Isc increase: thapsigargin 1 μM
Procedure: It is known that water secretion from epithelial cells is correlated with chloride ion secretion, and the effect to water secretion from epithelial cells may be evaluated through chloride-dependent current measurement.
T84 cells, a human colon epithelial cell-derived cell line, were purchased from American Type Culture Collection (ATCC, USA). T84 cells (3×10^5 cells/well) were cultured on a polyethylenic mesh insert (Transwell® by Corning, USA)) on a 6-well microplate for 10 to 12 days. As the culture medium, 5% bovine calf serum-containing DMEM/F-12 (Gibco, USA) was used. The cultured T84 cells were set in the sample chamber of an Ussing short-circuit current measuring system, and the chloride-dependent short circuit current (Isc) was measured. Isc was induced by adding thapsigargin (1 μM) or forskolin (10 μM) to the T84 cell monolayer specimen at its top on the membrane side thereof. […] In each test, the data obtained by DPC addition were taken as chloride-dependent Isc base line data, and the effect of each test compound was revised.

[3] = test system: antigen-induced diarrhea; test: Mouse antigen-induced diarrheal model; type: in vivo; settings: Balb/c mice, OVA
Procedure: Balb/c female mice were used in this test. The animals were immunized through intraperitoneal administration of 50 μg of ovalbumin (OVA) and 1 mg of aluminium gel (alum), and after 2 weeks from the first immunization, they were again immunized under the same condition. […] The diarrheal condition was checked 1 hour after the OVA administration.

[4] = test system: restrictive stress-induced diarrhea; test: Rat stress-induced diarrheal model; type: in vivo; settings: Wister rats
Procedure: Wister male rats were used in this test. The animals were restrained in individual restrictive cages for 4 hours and given stress thereby to have diarrhea. […] Each group consisted of 19 to 20 animals. The statistical pharmaceutical potency analysis of the test compound was attained as a significant chi-square test, and its multiplicity was corrected by Bonferroni multiple comparison.

[5] = test system: TNBS-induced chronic colitis; test: Rat TNBS-induced chronic colitis model; settings: Wistar rats
[6] = test system: oxazolone-induced acute colitis; test: Rat oxazolone-induced acute colitis model; settings: DA rats

CN1C2CCCC1CC(NC(=O)c1nn(C)c3ccccc13)C2 (centres unmarked) [Gra, granisetron, reference compound]
effect on cholera toxin-induced intestinal hypersecretion [1]: effective

Clc1ccc(COC(Cn2ccnc2)c2ccc(Cl)cc2Cl)cc1 (centres unmarked) [econazole, reference compound]
effect on forskolin-induced Isc increase [2]: dose-dependently inhibited | effect on thapsigargin-induced continuous Isc increase [2]: inhibited | effect on transient Isc increase seen before the sustained Isc increase [2]: did not affect

CN(C)C(=O)C(CCN1CCC(O)(c2ccc(Cl)cc2)CC1)(c1ccccc1)c1ccccc1 [Lop, loperamide, reference compound]
effect on cholera toxin-induced intestinal hypersecretion [1]: effective

C[C@]12C=CC(=O)C=C1CC[C@@H]1[C@@H]2[C@@H](O)C[C@@]2(C)[C@H]1CC[C@]2(O)C(=O)CO [Pred, prednisolone, reference compound]
effect on antigen-induced diarrhea (diarrheal symptom) ([3]; 10 mg/kg po 1 hour before OVA): almost completely inhibited

Cc1cc(C)c(C(=O)Nc2ccc(-n3nc(C(F)(F)F)cc3C(F)(F)F)cc2)cn1 [compound A, 4,6-Dimethyl-4′-[3,5-bis(trifluoromethyl)-1H-pyrazol-1-yl]nicotinanilide]
effect on incidence rate of restrictive stress-induced diarrhea ([4]; 10 mg/kg oral administration group): significant inhibition | effect on incidence rate of restrictive stress-induced diarrhea ([4]; 1.0 or 10 mg/kg po 24 hours and 1 hour before 4 hours restraint): dose-dependently inhibited | effect on cholera toxin-induced intestinal hypersecretion (ileal loop weight per unit length) ([1]; po): dose-dependently inhibited | oral dose at which inhibition of cholera toxin-induced intestinal hypersecretion was significant ([1]; po): ≥ 0.3 mg/kg | effect on MPO activity exacerbation ([5]; 0.3 mg/kg po once a day): inhibition of MPO activity exacerbation | effect on diarrheal symptom ([5]; 0.3 mg/kg po once a day): diarrheal symptom relief | effect on intestinal tissue weight increase ([5]; 0.3 mg/kg po once a day): inhibition of intestinal tissue weight increase | effect on disease activity index ([5]; 0.3 mg/kg po once a day, 15 days after colitis induction): significant improvement effect | effect on diarrheal symptom ([6]; at least 0.1 mg/kg oral administration): almost completely inhibited | effect on MPO activity promotion ([6]; oral 0.1, 1.0 or 10 mg/kg): MPO activity promotion inhibition | effect on diarrheal symptom ([6]; oral 0.1, 1.0 or 10 mg/kg): diarrheal symptom relief | effect on intestinal tissue weight increase ([6]; oral 0.1, 1.0 or 10 mg/kg): intestinal tissue weight increase inhibition | effect on disease activity index ([6]; oral 0.1, 1.0 or 10 mg/kg, 24 hours after colitis onset): significant improvement effect | dose for diarrhea-inhibiting effect relative to dose for colitis symptom relieving effect ([6]; oxazolone colitis): about 1/100 | effect on incidence rate of antigen-induced diarrhea ([3]; 3 or 10 mg/kg po 1 hour before OVA): dose-dependently inhibited | effect on forskolin-induced Isc increase [2]: dose-dependently inhibited | effect on thapsigargin-induced continuous Isc increase [2]: inhibited | effect on transient Isc increase seen before the sustained Isc increase [2]: did not affect

O=C(O)c1cc(/N=N/c2ccc(S(=O)(=O)Nc3ccccn3)cc2)ccc1O [SSZ, sulfasalazine, reference compound]
effect on TNBS-induced colitis model ([5]; 100 mg/kg po once a day): showed a relieving effect | effect relative to that of the compound A (weaker) ([5]; TNBS colitis): 1/500
